Reference: patent publication US20230219978A1, “COMPOUND HAVING MACROCYCLIC STRUCTURE AND USE THEREOF” (SCINNOHUB PHARMACEUTICAL CO., LTD, priority 2020, published 2023)

Legend:
Assay type in all cases: biochemical
[1] = biological target: T1, RET V804M (Homo sapiens, UniProt P07949, V804M); assay: In vitro kinase activity assay (mobility shift assay), RET V804M; details: ATP 5.4 μM, reaction time 60 min
T1 construct: purchased signalchem R02-12GG
Procedure: (§1) The IC50 (half inhibitory concentration) values of the compounds were used as an indicator to evaluate the inhibitory effect of the compound on RET wild-type, RET mutant, TRKa, SRC, BTK and/or mutated BTK kinase.
(§2) Using the method of Mobility shift assay, the compounds were tested for inhibitory activity against the following kinases: RET wild type, RET mutant, TRKa, SRC, BTK and/or mutated BTK. The initial concentration of the test compound was 1000 nM, 3-fold dilution, 10 concentrations, detected in a well for each concentration.
(§3) 20 mM hydroxyethylpiperazineethanesulfonic acid (Hepes) (pH 7.5) buffer, 10 mM MgCl2, 1 mM ethylene glycol bis(aminoethyl ether)tetraacetic acid (EGTA), 0.02% polyoxyethylene lauryl ether (Brij35), 0.02 mg/ml […] (BSA), 0.1 mM Na3VO4, 2 mM dithiothreitol (DTT), 1% DMSO.
(§4) The test compounds were dissolved in 100% dimethyl sulfoxide (DMSO) system, and prepared as 10 mM for use, and stored in a nitrogen cabinet away from light.
(§5) • (1) Preparing 1× kinase reaction buffer. • (2) Preparation of compound concentration gradient: the initial concentration of the compounds was 1000 nM, which was diluted as 100-fold final concentration of solution in 100% dimethyl sulfoxide (DMSO) in a 384-well plate. The compound was accurately 3-fold diluted with the kinase buffer solution, 10 concentrations in total, and the final concentration was 0.0508 nM. The 100-fold final concentration of solution in 100% dimethyl sulfoxide (DMSO) was obtained by dilution in 384 source plate. The liquid separator Echo 550 was used to transfer 250 nl of 100-fold final concentration of compound to the target 384 well plate. 250 nl of DMSO was added to the positive and negative control wells. • (3) 2.5-fold final concentration of kinase solution was prepared by the 1× kinase buffer. • (4) 10 4, of 2.5-fold final concentration of kinase solution was added to the compound well and the positive control well, respectively; 10 4, of 1× kinase buffer was added to the negative control well. • (5) After centrifuging at 1000 rpm for 30 second, the reaction plate was shaken and mixed, followed by incubation at room temperature for 10 min. • (6) a mixed solution of 25/15-fold final concentration of adenosine triphosphate (ATP) and kinase substrate was prepared by 1× kinase buffer. • (7) The mixed solution (15 μL) of 25/15-fold final concentration of adenosine triphosphate (ATP) and substrate was added to initiate the reaction. • (8) 384-well plate was centrifuged at 1000 rpm for 30 second, shaken and mixed well, and then incubated at room temperature for 30-240 min. • (9) After stopping the kinase reaction, the plate was centrifugated at 1000 rpm for 30 second, shaken and mixed well. • (10)The conversion rate was read with Caliper EZ Reader.
(§6) wherein Conversion%_sample is the conversion rate reading of the sample; Conversion%_min: the mean value of negative control wells, representing the conversion rate reading of wells without enzymes; Conversion%_max: the mean value of positive control wells, representing the conversion rate reading of wells without compound inhibition.
(§7) The log value of concentration was taken as the X axis, and the percentage inhibition rate was taken as the Y axis. Graphpad 6.0 analysis software was used to fit the dose-response curve, so as to obtain the IC50 value of each compound on the enzyme activity

[2] = biological target: T2, RET G810R (Homo sapiens, UniProt P07949, G810R); assay: In vitro kinase activity assay (mobility shift assay), RET G810R; details: ATP 201 μM, reaction time 4 h
T2 construct: purchased Proqinase 1724-0000-1
T2 sequence (P07949 29-1114 G810R): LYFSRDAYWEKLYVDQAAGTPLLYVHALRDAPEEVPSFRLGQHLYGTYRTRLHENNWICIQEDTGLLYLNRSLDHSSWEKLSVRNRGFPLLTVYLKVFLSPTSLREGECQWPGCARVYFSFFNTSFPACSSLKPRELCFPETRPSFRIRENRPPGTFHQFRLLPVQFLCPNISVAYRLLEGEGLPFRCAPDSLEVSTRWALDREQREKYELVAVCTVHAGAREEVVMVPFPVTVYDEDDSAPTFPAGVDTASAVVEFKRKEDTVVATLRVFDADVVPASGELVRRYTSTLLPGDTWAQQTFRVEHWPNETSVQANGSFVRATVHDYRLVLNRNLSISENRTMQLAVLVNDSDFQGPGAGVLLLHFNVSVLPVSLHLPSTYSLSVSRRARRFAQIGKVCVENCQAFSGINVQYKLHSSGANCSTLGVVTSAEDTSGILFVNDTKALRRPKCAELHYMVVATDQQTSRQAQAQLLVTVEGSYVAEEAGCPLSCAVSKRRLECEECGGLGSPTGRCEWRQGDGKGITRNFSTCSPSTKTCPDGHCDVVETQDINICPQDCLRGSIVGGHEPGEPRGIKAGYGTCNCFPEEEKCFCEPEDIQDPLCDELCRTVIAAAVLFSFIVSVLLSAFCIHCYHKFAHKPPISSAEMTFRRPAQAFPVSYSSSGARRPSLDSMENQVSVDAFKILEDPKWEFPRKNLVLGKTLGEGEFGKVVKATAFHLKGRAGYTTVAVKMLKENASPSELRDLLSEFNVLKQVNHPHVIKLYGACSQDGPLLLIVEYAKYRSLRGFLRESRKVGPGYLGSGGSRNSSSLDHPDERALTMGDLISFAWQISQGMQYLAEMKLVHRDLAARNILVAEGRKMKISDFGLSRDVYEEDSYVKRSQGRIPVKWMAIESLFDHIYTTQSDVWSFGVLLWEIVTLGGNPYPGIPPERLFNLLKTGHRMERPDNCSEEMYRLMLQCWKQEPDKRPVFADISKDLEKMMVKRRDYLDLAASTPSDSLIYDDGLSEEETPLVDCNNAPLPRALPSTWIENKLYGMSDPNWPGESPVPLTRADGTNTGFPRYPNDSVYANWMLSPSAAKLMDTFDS
Procedure: as §1, §2, §3, §4, §5, §6, §7

[3] = biological target: T3, RET wt (Homo sapiens, UniProt P07949); assay: In vitro kinase activity assay (mobility shift assay), RET wild type; details: ATP 16 μM, reaction time 60 min
T3 construct: purchased Carna 08-159
T3 sequence (P07949 29-1114): as the sequence (P07949 29-1114 G810R) above, with R782G counted along it
Procedure: as §1, §2, §3, §4, §5, §6, §7

T1 sequence (P07949 29-1114 V804M): as the sequence (P07949 29-1114 G810R) above, with V776M, R782G counted along it

IC50 [1] [nM] | IC50 [2] [nM] | IC50 [3] [nM] | Structure (SMILES)
 | > 1000 | 95 | C[C@H]1CNC(=O)c2cnn3cc(-c4cn[nH]c4)c(nc23)NCc2cc(F)cnc2O1 [Compound 37, (S, 1^3E, 1^4E)-4^5-fluoro-6-methyl-1^6-(1H-pyrazol-4-yl)-5-oxa-2,8-diaza-1(5,3)-pyrazolo[1,5-a]pyrimidin-4(3,2)-pyridinacyclononaphan-9-one]
 | > 1000 | 286 | C[C@H]1CNC(=O)c2cnn3cc(-c4ccc(NS(C)(=O)=O)cc4Cl)c(nc23)NCc2cc(F)cnc2O1 [Compound 44]
 | 588 | 5.4 | C[C@H]1CNC(=O)c2cnn3c(N)c(-c4ccc5nc[nH]c5c4)c(nc23)NCc2cc(F)cnc2O1 [Compound 52, (S, 1^3E, 1^4E)-1^7-amino-1 ^6-(1H-benzo [d]imidazol-6-yl)-4^5-fluoro-6-methyl-5-oxo-2,8-diaza-1(5,3)-pyrazolo[1,5-a]pyrimidin-4(3,2)-pyridinacyclononaphan-9-one]
 | 377 | 5.4 | C[C@H]1CNC(=O)c2cnn3cc(-c4ccc5[nH]ccc5c4Cl)c(nc23)NCc2cc(F)cnc2O1 [Compound 34, (S, 1^3E, 1^4E)-1^6-(4-chloro-1H-indo1-5-yl)-4^5-fluoro-6-methyl-5-oxo-2,8-diaza-1(5,3)-pyrazolo[1,5-a]pyrimidin-4(3,2)-pyridinacyclononaphan-9-one]
> 1000 | > 1000 | > 1000 | C[C@H]1CNC(=O)c2cnn3cc(-c4ccc(Nc5ncco5)cc4)c(nc23)NCc2cc(F)cnc2O1 [Compound 42, (S, 1^3E, 1^4E)-4^5-fluoro-6-methyl-1^6-(4-(oxazol-2-amino)phenyl)-5-oxa-2,8-diaza-1(5,3)-pyrazolo[1,5-a] pyrimidin-4(3,2)-pyridinacyclononaphan-9-one]
 | 376 | 3 | CNc1ccc(-c2cn3ncc4c3nc2NCc2cc(F)cnc2O[C@@H](C)CNC4=O)c(Cl)c1 [Compound 39, (S, 1^3E, 1^4E)-1^6-(4-methylamino-2-chlorophenyl)-4^5-fluoro-6-methyl-5-oxa-2,8-diaza-1(5,3)-pyrazolo[1,5-a]pyrimidina-4(3,2)-pyridinacyclononaphan-9-one]
 | 96.9 | 5.1 | C[C@H]1CNC(=O)c2cnn3cc(-c4ccc(NC(=O)OCC5CC5)cc4Cl)c(nc23)NCc2cc(F)cnc2O1 [Compound 46, cyclopropylmethyl (3-chloro-4-((S, 1^3E, 1^4E)-4^5-fluoro-6-methyl-9-oxo-5-oxadiaza-2,8-1(5,3)-pyrazolo[1,5-a]pyrimidin-4(3,2)-pyridinacyclononaphan-1^6-yl)phenyl)carbamate]
 | 197 | 1.9 | CNC(=O)Nc1ccc(-c2cn3ncc4c3nc2NCc2cc(F)cnc2O[C@@H](C)CNC4=O)c(Cl)c1 [Compound 35, 1-(3-chloro-4-((S, 1^3E, 1^4E)-4^5-fluoro-6-methyl-9-oxo-5-oxo-2,8-diaza-1(5,3)-pyrazolo[1,5-a]pyrimidin-4(3,2)-pyridinacyclononaphan-1^6-yl)phenyl)-3-methylurea]
 | > 1000 | 27 | C[C@H]1CNC(=O)c2cnn3cc(-c4ccc(N)cc4)c(nc23)NCc2cc(F)cnc2O1 [Compound 36, (S, 1^3E, 1^4E)-1^6-(4-aminophenyl)-4^5-fluoro-6-methyl-5-oxo-2,8-diaza-1(5,3)-pyrazolo[1,5-a]pyrimidin-4(3,2)-pyridinacyclononaphan-9-one]

More lines, now with the values behind:

Structure (SMILES) | IC50 [1] [nM] | IC50 [2] [nM] | IC50 [3] [nM]
CCOC(=O)Nc1ccc(-c2c3nc4c(cnn4c2N)C(=O)NC[C@H](C)Oc2ncc(F)cc2CN3)c(F)c1 [Example 71, ethyl (4-((S, 1^3E, 1^4E)-1^7-amino-4^5-fluoro-6-methyl-9-oxo-5-oxo-2,8-diaza-1(5,3)-pyrazolo[1,5-a]pyrimidin-4(3,2)-pyridinacyclononaphan-1^6-yl)-3-fluorophenyl)carbamate] | 1.6 | 23 | 1.2
CC(C)Nc1ccc(-c2c3nc4c(cnn4c2N)C(=O)NC[C@H](C)Oc2ncc(F)cc2CN3)cc1 [Example 57, (S, 1^3E, 1^4E)-1^7-amino-4^5-fluoro-1^6-(4-(isopropylamino)phenyl)-6-methyl-5-oxo-2,8-diaza-1(5,3)-pyrazolo[1,5-a]pyrimidin-4(3,2)-pyridinacyclononaphan-9-one] |  | > 1000 | 47
CCOC(=O)Nc1ccc(-c2c3nc4c(cnn4c2N)C(=O)NCCOc2ncc(F)cc2CN3)cc1 [Example 72, ethyl (4-((1^3E, 1^4E)-1^7-amino-4^5-fluoro-9-oxo-5-oxo-2,8-diaza-1(5,3)-pyrazolo[1,5-a]pyrimidin-4(3,2)-pyridinacyclononaphan-1^6-yl)phenyl)carbamate] | 1.4 | 14 | 0.56
CC(C)OC(=O)Nc1ccc(-c2c3nc4c(cnn4c2N)C(=O)NC[C@H](C)Oc2ncc(F)cc2CN3)cc1 [Example 61, iso-propyl (4-((S, 1^3E, 1^4E)-1^7-amino-4^5-fluoro-6-methyl-9-oxo-5-oxa-2,8-diaza-1(5,3)-pyrazolino[1,5-a]pyrimidin-4(3,2)-pyridinacyclononaphan-1^6-yl)-phenyl)carbamate] |  | 21.8 | 1
CCOC(=O)Nc1ccc(-c2c3nc4c(cnn4c2N)C(=O)NC[C@H](C)Oc2ncc(F)cc2CN3)cc1 [Example 62, ethyl (4-((S, 1^3E, 1^4E)-1^7-amino-4^5-fluoro-6-methyl-9-oxo-5-oxa-2,8-diaza-1(5,3)-pyrazolino [1,5-a]pyrimidin-4(3,2)-pyridinacyclononaphan-1^6-yl)-phenyl)carbamate] | 0.94 | 15 | 0.26
CCOC(=O)Nc1ccc(-c2c3nc4c(cnn4c2N)C(=O)NC[C@H](C)Oc2ncc(F)cc2CN3)cc1F [Example 69, ethyl (4-((S, 1^3E, 1^4E)-1^7-amino-4^5-fluoro-6-methyl-9-oxo-5-oxa-2,8-diaza-1(5,3)-pyrazolo[1,5-a]pyrimidin-4(3,2)-pyridinacyclononaphan-1^6-yl)-2-fluorophenyl)carbamate] | 2.8 | 16 | 0.87
CNC(=O)Nc1ccc(-c2cn3ncc4c3nc2NCc2cc(F)cnc2O[C@@H](C)CNC4=O)cc1 [Compound 32, 1-(4-((S, 1^3E, 1^4E)-4^5-fluoro-6-methyl-9-oxo-5-oxa-2,8-diaza-1(5,3)-pyrazolo[1,5-a]pyrimidin-4(3,2)-pyridinacyclononaphan-1^6-yl)phenyl)-3-methylurea] | 59 | 98.2 | 14.2
C[C@H]1CNC(=O)c2cnn3c(N)c(-c4ccc(N(C)C)cc4)c(nc23)NCc2cc(F)cnc2O1 [Example 58, (S, 1^3E, 1^4E)-1^7-amino-1^6-(4-(dimethylamino)phenyl)-4^5-fluoro-6-methyl-5-oxo-2,8-diaza-1(5,3)-pyrazolo[1,5-a]pyrimidin-4(3,2)-pyridinacyclononaphan-9-one] |  | 155 | 3.4
CNC(=O)Nc1ccc(-c2c3nc4c(cnn4c2N)C(=O)NC[C@H](C)Oc2ncc(F)cc2CN3)cc1 [Example 55, 1-(4-((S, 1^3E, 1^4E)-1^7-amino-4^5-fluoro-6-methyl-9-oxo-5-oxo-2,8-diaza-1(5,3)-pyrazolo[1,5-a]pyrimidin-4(3,2)-pyridinacyclononaphan-1^6-yl)phenyl)-3-methylurea] |  | 84.3 | 1.1
